The text below walks through data of the supplement of paper PMC12325586.

This assay has as its system MIA PaCa-2.
[1] abbreviates: OFD1 knockdown: no (no doxycycline).
Where [2] appears, read: OFD1 knockdown: yes (Tet-on shOFD1, 100 ng/mL doxycycline).

Structures are written as SMILES.

In the case of `O=C(O)CCCc1ccc(N(CCCl)CCCl)cc1` [S4288], the IC50 cell viability amounted to 21.7 µM under setting [1] and 19.3 µM under setting [2].

For the compound `CC[C@H](NC(=O)[C@H](C)NC)C(=O)N1C[C@@H](O)C[C@H]1Cc1c(-c2[nH]c3cc(F)ccc3c2C[C@@H]2C[C@H](O)CN2C(=O)[C@H](CC)NC(=O)[C@H](C)NC)[nH]c2cc(F)ccc12` [S7015], the IC50 cell viability was determined as 21.9 µM under setting [1] and 20.3 µM under setting [2].

For the compound `C=CC(=O)Nc1cc(Nc2nccc(-c3cn(C)c4ccccc34)n2)c(OC)cc1N(C)CCN(C)C` [S7297], the IC50 cell viability reads like this: under setting [1], 11.4 µM; under setting [2], 9.5 µM.

As to `CC1(C)CCC(CN2CCN(c3ccc(C(=O)NS(=O)(=O)c4ccc(NCC5CCOCC5)c([N+](=O)[O-])c4)c(Oc4cnc5[nH]ccc5c4)c3)CC2)=C(c2ccc(Cl)cc2)C1` [S8048], the IC50 cell viability is, setting by setting: under setting [1], 13.1 µM; under setting [2], 12.1 µM.
